# Measurements as given in patent US20020132364A1, “Quant-screentm chemiluminescent assays” (priority 2001, published 2002).
# Numbered stars: 1 amine (or outer) side, 2 acyl side, 3 side chain; on linkers, the order of the positions; unused ones are H or OH. Bridge positions count the residues as written; N and C are the ends. Square brackets hold non-standard residues; d marks the D form. Peptide text beside a SMILES is read from it. I, II: the chains in the order shown. Actinocin(9to1) = Cc1c2oc3c(C)ccc(C(=O)[*:1])c3nc-2c(C(=O)[*:2])c(N)c1=O; NMeV = CN[C@H](C(=O)O)C(C)C; Sar = CNCC(=O)O
# System: Saccharomyces cerevisiae INVSc1 yeast cells
# Test: Yeast growth inhibition experiment (Quant-Screen Yeast Assay and OD600)
# Format: cell-based
# Details: INVSc1 in YPD medium, 6 hours at 30° C., different concentrations
# Protocol: Serial dilutions of a yeast cell suspension prepared in culture media was placed in each well of a 96-well plate (100 μl/well). Next, 100 μl of reaction buffer containing the CDP-Star® substrate was added to each well. The light emission was then immediately measured in a luminometer (TR717®) (1 sec/well) or NorthStar® (60 sec/plate).
# An equivalent aliquot of yeast cell suspension (INVSc1) were inoculated into tubes with 2 ml of minimum medium containing various concentrations of leucine and were grown overnight at 30° C. with shaking. The overnight cultures were then measured by a spectrophotometer at 600 nm to estimate cell density. Next, each of the overnight cultures was transferred (100 μl/well) into a 96-well microplate in triplicate. An equal volume of reaction buffer was added. The plate was placed in TR717™ (a luminometer) to measure total light emission.
# 100 μof log phase growing yeast cells, INVSc1, were inoculated into tubes with 1 ml of YPD medium containing different concentrations of actinomycin D, a […]. The cultures were grown at 30° C. with shaking for 6 hours. The cultures were measured for OD600 in a spectrophotometer. Next, the cells were transferred (100 μl/well) in triplicate in a 96-well microplate. The assay was performed as in the Growth Stimulation Experiment set forth above.
smiles,measurement,value
"Cc1c2oc3c(C)ccc(C(=O)N[C@@H]4C(=O)N[C@H](C(C)C)C(=O)N5CCC[C@H]5C(=O)N(C)CC(=O)N(C)[C@@H](C(C)C)C(=O)O[C@@H]4C)c3nc-2c(C(=O)N[C@@H]2C(=O)N[C@H](C(C)C)C(=O)N3CCC[C@H]3C(=O)N(C)CC(=O)N(C)[C@@H](C(C)C)C(=O)O[C@@H]2C)c(N)c1=O [actinomycin D] (I: T[dV]P[Sar][NMeV] / II: T[dV]P[Sar][NMeV]; ester I:1-I:C, II:1-II:C; linker I:N-II:N via Actinocin(9to1))",O.D. measurement (OD600),declined with increasing concentrations
same,"signal intensity (Quant-Screen Yeast Assay, endogenous alkaline phosphatase, light emission)",declined with increasing concentrations
